The subject of data set [1] is Cln2−/− mouse embryo fibroblast cells. The data set is described as follows: caTPP1 neutralization antibody assay (NAbs in dog CSF/serum). The data set is classed as cell-based. The protocol: To assess neutralizing Abs (Nabs) in CSF, Cln2−/− mouse embryo fibroblast cells were used. Sixteen hours before the assay, 1.0×10^5 cells/well were plated onto 24 wells plate the day before, and dog CSF was heat inactivated at 56° C. for 30 minutes, diluted 1:10, and then pre-incubated with 1.75 nM of TPP1 at 37° C. for one hour. The mixture was applied to cells for three hours at 37° C. after which the cells were washed with 37° C. HBSS (Ca^2+ and Mg^2+) and then homogenized in 100 μl of ice cold homogenization buffer-0.1% TritonX-100 in normal saline with complete protease inhibitor cocktail (Roche, Mannheim, Germany). Insoluble material was removed by centrifugation at 21×10^3 rcf at 4° C. for 10 minutes and TPP1 activity detected as described above. The results were calculated as percentage of activity obtained from CSF collected prior to vector administration.

The test system of the next data set is CLN2−/− dogs. The data set is described as follows: Cerebrospinal fluid TPP1 enzyme activity assay. Format: in vivo, dog. The following applies: for CSF TPP1 activity after introduction of MMF: with cyclosporine and rAAV.caTPP1. The text has this:
Long-haired miniature Dachshunds were bred and housed at the University of Missouri in facilities overseen by the Office of Animal Resources (OAR). TPP1-null animals were generated from heterozygous breeding (Awano, 2006). All puppies were genotyped by PCR. In addition to the standard care provided by the OAR, the dogs were socialized on a daily basis throughout the study. All procedures involving dogs were reviewed and approved by the University of Missouri Animal Care and Use Committee and conformed to the National Institutes of Health Guide for the Care and Use of Laboratory Animals. Intraventricular infusions were performed over 25 minutes using the Brainsight™ neuronavigation system equipped with a 26 gauge 12 cm needle. Cyclosporine 10 mg/kg twice daily by mouth was administered to all of the dogs in this study starting one to two weeks prior to the gene therapy vector administration. The dose was gradually tapered after 2 months to once daily, which was continued for the duration of the study. A 10-20 mg/kg daily dose by mouth of mycophenolate mofetil (MMF) was instituted, as indicated in the results, and tapered after 2 to several months depending on tolerability.
TPP1 activity was assayed via a modification of previously described methods (Chang et al., 2008; Tian et al., 2006). Samples were homogenized in 300 μl ice-cold homogenization buffer (0.1% Triton X-100 in normal saline with complete protease inhibitor cocktail, Roche, Mannheim, Germany). Insoluble material was removed by centrifugation at 21×10^3 rcf at 4° C.×15 minutes, and protein quantified by DC Protein Assay (Biorad, Hercules, Calif.). […] Plates were read in a Safire 2 microplate reader (Tecan., Mannedorf, Switzerland) at 37° C. using the 460-nm emission filter. […]
Samples were concentrated 3.5-fold using Amicon Ultra-0.5 Centrifugal filter (Ultracel-10K. Millipore Corporation) at 21×10^3 rcf for 5 minutes at 4° C. Activated TPP1 was quantified as in tissue samples.

Another data set concerns dog disease model. The following applies: cited from earlier work.
Setting [2] is: MMF 5 days prior to rAAV.caTPP1 delivery, DC018.

For the molecule `COc1c(C)c2c(c(O)c1C/C=C(\C)CCC(=O)OCCN1CCOCC1)C(=O)OC2` [MMF, mycophenolate mofetil], the anti-TPP1 antibodies entry in data set [1] (setting [2]) is “did not appear”. In addition, in data set [1] (MMF at the time of or before AAV delivery), the anti-TPP1 immune responses result was “reduced, inhibited or dramatically delayed”. Besides, the “anti-TPP1 Ab titers” value in data set [1] (MMF by 33 days post-vector, with cyclosporine and rAAV.caTPP1) is given as “reduction in anti-TPP1 Ab titers”. Also, in the data set on CLN2−/− dogs (setting [2]), the “CSF TPP1 activity” value is “robust and sustained”. Moreover, the “CSF TPP1 activity after introduction of MMF” value is recorded as “increase in CSF TPP1 activity” with CLN2−/− dogs (MMF by 33 days post-vector, DC015, DC016) and “did not result in a recovery of TPP1 activity” in the data set on CLN2−/− dogs (MMF from 44 days post-vector, DC013, DC014).

B1: recombinant human TPP1: recombinant human TPP1 infused into the lumbar subarachnoid space or lateral ventricle (Vuillemenot et al., 2015) (protein, UniProt O14773 196-563, looked up)
Tripeptidyl-peptidase 1: LHLGVTPSVIRKRYNLTSQDVGSGTSNNSQACAQFLEQYFHDSDLAQFMRLFGGNFAHQASVARVVGQQGRGRAGIEASLDVQYLMSAGANISTWVYSSPGRHEGQEPFLQWLMLLSNESALPHVHTVSYGDDEDSLSSAYIQRVNTELMKAAARGLTLLFASGDSGAGCWSVSGRHQFRPTFPASSPYVTTVGGTSFQEPFLITNEIVDYISGGGFSNVFPRPSYQEEAVTKFLSSSPHLPPSSYFNASGRAYPDVAALSDGYWVVSNRVPIPWVSGTSASTPVFGGILSLINEHRILSGRPPLGFLNPRLYQQHGAGLFDVTRGCHESCLDEEVEGQGFCSGPGWDPVTGWGTPNFPALLKTLLNP
With B1, in the data set on dog disease model (bolus infusion), the anaphylactic reactions entry is listed as “Anaphylactic reactions were noted”. The “immune responses to recombinant protein” value in the data set on dog disease model (infused into the lumbar subarachnoid space or lateral ventricle) is reported as “robust anti-TPP1 responses”.

The values above are taken from patent US20180236105A1, “METHODS FOR TREATING NEURODEGENERATIVE DISEASES USING GENE THERAPY TO DELAY DISEASE ONSET AND PROGRESSION WHILE PROVIDING COGNITIVE PROTECTION” (UNIVERSITY OF IOWA RESEARCH FOUNDATION, priority 2015, published 2018).
